Assay [1] deals with T lymphocytes (T cells). Nature of the assay: Suppression of DNA synthesis of PHA-stimulated T lymphocytes. The class given is cell-based. The note with it: Homo sapiens, T-cell, 48 h, tritium thymidine incorporation, read-out: Supp. DNA Synt. T-cell IC50. On the procedure: Peripheral blood mononuclear cells (PBMC) from healthy human volunteers were freshly isolated by density gradient centrifugation. T lymphocytes (T cells) were isolated from PBMC fractions via nylon wool adherence. Both cell populations were cultured in serum free lymphocyte medium (AIMV medium, Invitrogen) and stimulated by addition of 1 μg/ml Phytohemagglutinine for 48 hours in 96 well flat-bottom microtiter plates. Test compounds were added at concentration ranges from 0.1 up to 250 μM over the total assay period.
DNA synthesis of proliferating PBMC was assessed by incorporation of nucleotide analogue bromdesoxyuridine (BrdU) and subsequent detection of BrdU by ELISA technique (Cell Proliferation Biotrak™ ELISA system, GE Health Care) according to the protocol of the manufacturer. DNA synthesis of proliferating T cells was determined by incorporation of radio labelled tritium thymidine and subsequent radio detection.
Data output was based on raw data and calculation of relative proliferation response in relation to PHA-activated T cells in the absence of test compound (100% control). The IC50 value of proliferation suppression was assessed by graphical evaluation.
For orientation: Uptake of a labelled nucleoside into DNA is a usual measure of proliferation.

Assay [2] addresses T1, aminopeptidase N (APN), purified recombinant human enzyme (Homo sapiens, UniProt P15144).
T1 construct: made in house; host or cells: ECV cells (transfected)
Nature of the assay: Inhibition of enzymatic activity of aminopeptidase N (fluorogenic substrate hydrolysis). The class given is biochemical. The note with it: highest test item concentration 25 μM; for IC50: read-out: meas. IC50 (APN). As for the experimental part: The inhibition of the enzymatic activity of aminopeptidase N (APN) was measured by using purified, recombinant human enzyme (purified from transfected ECV cells, final enzyme concentration approx. 1 nM). […] The assay was performed in 0.05M TRIS/HCl puffer pH 7.5, supplemented with 0.05% Triton (v/v), 0.05% BSA (w/v), 2 mM MgCl2.
The aminopeptidase acitivities wer assessed by the hydrolysis of the fluorogenic substrates H-Ala-4-amino-7-methyl coumarine (abbreviation of fluorogenic group AMC; purchased from Bachem) or (Ala-)2-Rhodamine 110 (abbreviation R110). The final substrate concentrations were again 50 and 1 μM, respectively.
(§1) The assay was performed in white microtitre plates for fluorescence measurements. The test items, substrate and enzyme were diluted in assay buffer. The highest test item concentration used was 25 μM. For the calculation of IC50 values, at least 16 log 2-dilutions of each test item were analyzed. As controls, the DPIV activity in the absence of test items as well as the spontaneous hydrolysis of the substrate was determined.
The release of the fluorescent hydrolysis products AMC and R110 was measured as described above for DPIV substrates.

In assay [3] the test system is purified, recombinant DP8 and DP9. Nature of the assay: Inhibition of enzymatic activity of DP8/9. The class given is biochemical. The note with it: highest test item concentration 25 μM; for IC50: read-out: meas. IC50 (DP8/9). As for the experimental part: (§2) The inhibition of the enzymatic activity of DPIV and related enzymes was measured by using purified, recombinant human DPIV (purified from transfected Sf9 cells, final enzyme concentration approx. 1 nM) as well as purified, recombinant DP8 and DP9 (purchased from Biomol). The assay was performed in 0.05M TRIS/HCl puffer pH 7.5, supplemented with 0.05% Triton (v/v), 0.05% BSA (w/v), 2 mM MgCl2.
(§3) The enzymatic activity of DPIV was assessed by the hydrolysis of the fluorogenic substrates H-Gly-Pro-4-amino-7-methyl coumarine (abbreviation of fluorogenic group AMC; purchased from Bachem) or (Ala-Pro)2-Rhodamine 110 (abbreviation R110). The final substrate concentrations were 50 μM or 1 μM, respectively.
as §1
(§4) The release of the fluorescent hydrolysis product AMC was measured at an excitation wavelength of 380 nm and an emission wavelength of 460 nm by using a microtitre fluorescence reader immediately after substrate addition as well as after 30, 60 and 120 min. The hydrolysis of the substrate (Ala-Pro)2-Rhodamine 110 was determined at an exitation wavelength of 488 nm and emission wavelength of 530 nm.

Assay [4] addresses T2, cytosolic aminopeptidase (cAAP) purified from Jurkat cells (Homo sapiens, UniProt P55786).
T2 construct: The cytosolic aminopeptidase (cAAP) was purified from Jurkat cells; endogenous in cells; host or cells: Jurkat cells (enzyme purified from them)
The assay is described as follows: Inhibition of enzymatic activity of cytosolic aminopeptidase (cAAP). The class given is biochemical. The note with it: highest test item concentration 25 μM; for IC50: read-out: meas. IC50 (cAAP).

Assay [5] concerns the target T3, purified, recombinant human DPIV (Homo sapiens, UniProt P27487).
T3 construct: made in house; host or cells: Sf9 insect cells
Nature of the assay: Inhibition of enzymatic activity of DPIV (fluorogenic substrate hydrolysis). It counts as biochemical. The note with it: highest test item concentration 25 μM; for IC50: read-out: meas. IC50 (DPIV). As for the experimental part: as §2, §3, §1, §4

In assay [6] the test system is SZ95 cells. Nature of the assay: Inhibition of DNA synthesis and proliferation of immortalized human sebocytes SZ95. It counts as cell-based. The note with it: Homo sapiens, EGF-stimulated SZ95 sebocytes, tritium thymidine incorporation; read-out: Supp. DNA Synt. SZ95 IC50. As for the experimental part: The immortalized human sebocyte line SZ95 was provided by Prof. C Zouboulis [C C Zouboulis, H Seltmann, H Neitzel, C E Orfanos, Establishment and characterization of an immortalized human sebaceous gland cell line (SZ95). J. Invest. Dermatol. 113(6):1011-1020 (1999), the entire disclosure of which is incorporated by reference herein]. These adherent growing cells were cultured in serum-free Sebomed Complete (Biochrom). Recombinant EGF was added in order to stimulate DNA synthesis and proliferation of the SZ95 cells. Test items were added in concentrations from 0.1 up to 100 μM.
The DNA synthesis of proliferating cells was detected by incorporation of radiolabelled tritium thymidine (3HT) and counting at a beta counter. Based on these raw data the relative proliferation response in relation to cells cultured in the absence of test compound (100% control) was calculated. IC50 values of proliferation suppression were assessed by computer-assisted graphical evaluation.

The test system of assay [7] is NHEK cells. Nature of the assay: Inhibition of DNA synthesis and proliferation of normal human epidermal keratinocytes (NHEK). The class given is cell-based. The following applies: Homo sapiens, NHEK, 48 h, EGF-stimulated NHEK, BrdU incorporation, read-out: Supp. DNA Synt. NHEK IC50. On the procedure:
NHEK cells (primary cells from person) were purchased from PromoCell. For these assay the adherent cells were cultured in serum-free Keratinocyte Growth medium 2 supplemented with epidermal growth factor (EGF) and bovine pituitary extract for 48 hours in flat-bottom microtiter plates. EGF stimulates the DNA synthesis and proliferation of these cells. Test items were added in concentrations from 0.1 up to 100 μM.
The DNA synthesis was assessed by incorporation of bromdesoxyuridine (BrdU) and subsequent detection of BrdU by ELISA technique. Based on these raw data the relative proliferation response in relation to cells cultured in the absence of test compound (100% control) was calculated. IC50 values of proliferation suppression were assessed by computer-assisted graphical evaluation.

A value given as a limit tells only on which side of the number the result lay.

T3 sequence (P27487 whole entry): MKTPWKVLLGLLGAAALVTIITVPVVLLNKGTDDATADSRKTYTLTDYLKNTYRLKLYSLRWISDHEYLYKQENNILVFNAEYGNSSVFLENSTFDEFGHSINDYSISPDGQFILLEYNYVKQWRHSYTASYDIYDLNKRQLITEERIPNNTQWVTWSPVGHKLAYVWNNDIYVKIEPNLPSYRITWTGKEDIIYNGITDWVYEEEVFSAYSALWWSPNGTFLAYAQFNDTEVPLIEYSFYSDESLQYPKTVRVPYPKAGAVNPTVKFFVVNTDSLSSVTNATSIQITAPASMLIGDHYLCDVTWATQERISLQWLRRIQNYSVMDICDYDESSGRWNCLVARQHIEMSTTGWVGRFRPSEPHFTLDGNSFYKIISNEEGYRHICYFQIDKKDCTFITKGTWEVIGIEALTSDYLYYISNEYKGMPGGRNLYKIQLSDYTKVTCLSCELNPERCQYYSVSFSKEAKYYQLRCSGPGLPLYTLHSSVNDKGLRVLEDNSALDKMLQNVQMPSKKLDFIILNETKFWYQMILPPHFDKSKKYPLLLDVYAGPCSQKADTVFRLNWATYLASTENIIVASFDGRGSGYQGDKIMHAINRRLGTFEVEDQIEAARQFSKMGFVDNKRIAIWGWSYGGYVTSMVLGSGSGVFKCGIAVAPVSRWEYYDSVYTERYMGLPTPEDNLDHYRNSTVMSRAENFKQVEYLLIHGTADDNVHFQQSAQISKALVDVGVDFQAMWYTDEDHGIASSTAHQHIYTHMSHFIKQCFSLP
T2 sequence (P55786 whole entry): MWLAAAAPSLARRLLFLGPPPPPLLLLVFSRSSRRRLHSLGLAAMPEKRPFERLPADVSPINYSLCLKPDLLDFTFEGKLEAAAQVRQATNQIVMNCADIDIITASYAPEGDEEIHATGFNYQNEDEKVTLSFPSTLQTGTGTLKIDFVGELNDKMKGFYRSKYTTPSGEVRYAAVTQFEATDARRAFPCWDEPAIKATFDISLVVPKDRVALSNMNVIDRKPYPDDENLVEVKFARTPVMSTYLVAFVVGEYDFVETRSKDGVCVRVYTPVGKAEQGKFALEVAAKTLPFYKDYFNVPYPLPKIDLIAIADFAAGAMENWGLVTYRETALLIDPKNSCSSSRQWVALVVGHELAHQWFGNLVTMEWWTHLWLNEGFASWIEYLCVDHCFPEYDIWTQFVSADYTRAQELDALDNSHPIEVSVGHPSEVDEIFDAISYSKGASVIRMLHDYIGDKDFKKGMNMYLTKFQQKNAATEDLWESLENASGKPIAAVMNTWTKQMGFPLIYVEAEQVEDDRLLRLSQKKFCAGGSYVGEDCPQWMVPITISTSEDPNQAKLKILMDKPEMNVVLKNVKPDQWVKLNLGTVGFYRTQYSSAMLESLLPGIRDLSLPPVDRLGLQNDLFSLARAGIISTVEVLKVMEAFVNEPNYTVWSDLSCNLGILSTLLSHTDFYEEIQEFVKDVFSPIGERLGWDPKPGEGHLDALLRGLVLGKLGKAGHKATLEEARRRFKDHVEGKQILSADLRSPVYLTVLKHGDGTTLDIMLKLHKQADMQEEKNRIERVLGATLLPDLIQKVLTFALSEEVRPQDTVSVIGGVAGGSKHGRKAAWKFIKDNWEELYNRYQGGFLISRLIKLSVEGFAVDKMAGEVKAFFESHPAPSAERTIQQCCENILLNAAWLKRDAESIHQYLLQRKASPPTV
T1 sequence (P15144 whole entry): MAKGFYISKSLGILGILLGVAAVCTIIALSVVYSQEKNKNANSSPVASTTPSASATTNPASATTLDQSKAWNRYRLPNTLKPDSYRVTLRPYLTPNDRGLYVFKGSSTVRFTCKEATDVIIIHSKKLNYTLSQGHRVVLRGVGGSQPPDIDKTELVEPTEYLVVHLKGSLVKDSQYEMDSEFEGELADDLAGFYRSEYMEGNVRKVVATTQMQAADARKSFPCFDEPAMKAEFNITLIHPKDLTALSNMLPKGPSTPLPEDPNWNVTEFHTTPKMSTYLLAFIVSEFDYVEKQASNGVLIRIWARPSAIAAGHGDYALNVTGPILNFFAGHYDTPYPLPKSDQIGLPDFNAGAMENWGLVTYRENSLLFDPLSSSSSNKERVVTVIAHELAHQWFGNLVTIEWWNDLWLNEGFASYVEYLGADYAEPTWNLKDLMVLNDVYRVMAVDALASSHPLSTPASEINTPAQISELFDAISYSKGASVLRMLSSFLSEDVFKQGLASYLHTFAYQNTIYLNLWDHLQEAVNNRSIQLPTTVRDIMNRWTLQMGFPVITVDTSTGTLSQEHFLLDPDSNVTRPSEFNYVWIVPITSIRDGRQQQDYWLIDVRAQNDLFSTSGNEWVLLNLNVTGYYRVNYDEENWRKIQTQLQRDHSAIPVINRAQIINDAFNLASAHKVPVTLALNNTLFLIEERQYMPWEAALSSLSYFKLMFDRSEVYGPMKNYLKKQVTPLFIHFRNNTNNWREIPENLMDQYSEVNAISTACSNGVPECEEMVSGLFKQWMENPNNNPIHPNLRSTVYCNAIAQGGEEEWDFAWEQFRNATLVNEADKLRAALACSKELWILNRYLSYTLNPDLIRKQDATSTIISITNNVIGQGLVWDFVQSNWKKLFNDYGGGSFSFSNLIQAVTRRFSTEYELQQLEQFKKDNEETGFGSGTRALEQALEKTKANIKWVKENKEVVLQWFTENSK

Regarding `CC(C)(CNC(=O)CC(N)Cc1cc(F)ccc1F)CNC(=O)C(O)C(N)Cn1cnc2cncnc21` (stereo not shown) [Compound C18.001], the IC50 is 29.8 µM in assay [1]; 0.91 µM in assay [2]; 16 µM in assay [3]; 1 µM in assay [4]; 0.247 µM in assay [5]; at least 156 µM in assay [6].

For `CC(C)(CNC(=O)CC(N)Cc1cc(F)ccc1F)CNC(=O)C(O)C(N)COCc1ccccc1` (stereo not shown) [Compound C19.001], the IC50 in assay [3] amounted to 1.25 µM.

`CC(C)(CNC(=O)CC(N)Cc1cc(F)ccc1F)CNC(=O)C(O)C(N)CO` (stereo not shown) [Compound C19.003]: the IC50 was 81.2 µM in assay [1]; 0.92 µM in assay [2]; 3.8 µM in assay [3]; 0.37 µM in assay [4]; 0.33 µM in assay [5]; 81.4 µM in assay [6].

As for `CC(C)(CNC(=O)CC(N)Cc1cc(F)ccc1F)CNC(=O)C(O)C(N)COCc1ccccc1` (stereo not shown) [Compound C19.020], the IC50 in assay [3] turned out to be 1.2 µM.

In the case of `CC(C)(CNC(=O)CC(N)Cc1cc(F)ccc1F)CNC(=O)C(O)C(N)COCc1ccccc1` (stereo not shown) [Compound C19.022], the IC50 in assay [3] is 1.2 µM.

Take `CC(C)(C)OC(=O)NC(CCCCNS(=O)(=O)c1cccc(NC(=O)C(O)C(Cc2ccccc2)NC(=O)OC(C)(C)C)c1)C(=O)N1CCSC1` (stereo not shown) [Compound C21.005]: the IC50 in assay [1] was 11.4 µM; in assay [7] it was 15.3 µM. For the same molecule, the “meas. IC50 (APN)” value in assay [2] was “no in- hibition”. The “meas. IC50 (DP8/9)” value in assay [3] was “no in- hibition”. The “meas. IC50 (cAAP)” value in assay [4] was “no in- hibition”. In addition, the “meas. IC50 (DPIV)” value in assay [5] is recorded as “no in- hibition”.

As for `NC(CCCCNS(=O)(=O)c1cccc(NC(=O)C(O)C(N)Cc2ccccc2)c1)C(=O)N1CCSC1` (stereo not shown) [Compound C21.006], the IC50 was 157 µM in assay [1]; 0.89 µM in assay [2]; 0.11 µM in assay [3]; 0.12 µM in assay [4]; 66.2 µM in assay [7]; 0.05 µM in assay [5].

For `NC(CNS(=O)(=O)CCCNC(=O)C(O)C(N)Cc1ccccc1)Cc1cc(F)ccc1F` (stereo not shown) [Compound C26.001], the IC50 in assay [1] is 200 µM; in assay [2], 0.07 µM; in assay [3], 7.37 µM; in assay [4] it was 0.09 µM; in assay [7], at least 135 µM; in assay [5], 0.58 µM.

For the molecule `CC(C)(C)OC(=O)NC(CNS(=O)(=O)CCCNC(=O)C(O)C(Cc1ccccc1)NC(=O)OC(C)(C)C)Cc1cc(F)ccc1F` (stereo not shown) [Compound C26.002], the IC50 in assay [1] was 200 µM; in assay [7] it was 18.1 µM; in assay [5], 6.52 µM. Further, the “meas. IC50 (APN)” value in assay [2] was “no in- hibition”. Further, the “meas. IC50 (DP8/9)” value in assay [3] is reported as “no in- hibition”. The “meas. IC50 (cAAP)” value in assay [4] is “no in- hibition”.

For `CC(=O)NC(Cc1ccccc1)C(O)C(=O)NCCCS(=O)(=O)NCC(N)Cc1cc(F)ccc1F` (stereo not shown) [Compound C26.003], the IC50 in assay [1] was 70 µM; in assay [2], 0.19 µM; in assay [4] it was 0.25 µM; in assay [7] it was at least 167 µM; in assay [5], 0.36 µM. The “meas. IC50 (DP8/9)” value in assay [3] was “no in- hibition”.

In the case of `CC(=O)NC(Cc1ccccc1)C(O)C(=O)NCCCS(=O)(=O)NCC(Cc1cc(F)ccc1F)NC(=O)OC(C)(C)C` (stereo not shown) [Compound C26.004], the figures for the IC50 in assay [1] and in assay [7] were 70 µM and at least 106 µM, respectively. Further, in assay [2], the “meas. IC50 (APN)” value is “no in- hibition”. The “meas. IC50 (DP8/9)” value in assay [3] was “no in- hibition”. Moreover, in assay [4], the “meas. IC50 (cAAP)” value is on record as “no in- hibition”. Further, in assay [5], the “meas. IC50 (DPIV)” value is on record as “no in- hibition”.

As to `NC(CNC(=O)CCCNC(=O)C(O)C(N)Cc1ccccc1)Cc1cc(F)ccc1F` (stereo not shown) [Compound C26.005], the IC50 in assay [1] was 27.3 µM; in assay [2], 0.09 µM; in assay [4] it was 0.13 µM; in assay [7], 28.9 µM. Besides, in assay [5], the “meas. IC50 (DPIV)” value is “no in- hibition”.

With `CCOC(=O)C(O[Si](C)(C)C(C)(C)C)C(Cc1ccc(-c2cccnc2)cc1)NC(=O)OCc1ccccc1` (stereo not shown) [Compound C26.006], the IC50 was 3.8 µM in assay [1], 1.9 µM in assay [7] and 7.9 µM in assay [6]. Further, in assay [2], the “meas. IC50 (APN)” value is listed as “no in- hibition”. Also, the “meas. IC50 (cAAP)” value in assay [4] is listed as “no in- hibition”. In addition, in assay [5], the “meas. IC50 (DPIV)” value was “no in- hibition”.

Take `NC(Cc1cc(F)ccc1F)CS(=O)(=O)NCCCCNC(=O)C(O)C(N)Cc1ccccc1` (stereo not shown) [Compound C26.007]: the IC50 in assay [1] was 3.5 µM; in assay [6] it was 7.3 µM. The “meas. IC50 (APN)” value in assay [2] was “no in- hibition”. In addition, the “meas. IC50 (DPIV)” value in assay [5] is reported as “no in- hibition”.

In the case of `NC(CNC(=O)CCCNC(=O)C(O)C(N)Cc1ccccc1)Cc1cc(F)ccc1F` (stereo not shown) [Compound C26.008], the results for the IC50 in assay [2] and in assay [5] were 0.01 µM and 0.9 µM, respectively.

On to `CC(C)(C)OC(=O)NC(CNC(=O)CCCNC(=O)C(O)C(Cc1ccccc1)NC(=O)OC(C)(C)C)Cc1cc(F)ccc1F` (stereo not shown) [Compound C26.009], for which the “meas. IC50 (APN)” value in assay [2] was “no in- hibition”. The “meas. IC50 (DPIV)” value in assay [5] was “no in- hibition”.

On to `CC(C)(C)OC(=O)NC(CNC(=O)c1cccc(NC(=O)C(O)C(N)Cc2ccc(-c3cccnc3)cc2)c1)Cc1cc(F)ccc1F` (stereo not shown) [Compound C-125], for which the IC50 in assay [1] came out at 12.9 µM; in assay [2], 0.094 µM; in assay [4], 0.005 µM; in assay [7] it was 4.4 µM; in assay [6], 13.7 µM. In addition, the “meas. IC50 (DPIV)” value in assay [5] is on record as “no in- hibition”.

The record behind these values is patent US20120028995A1, “NOVEL COMPOUNDS FOR MEDICAL USE AS PEPTIDASE EFFECTORS” (IMTM GMBH, priority 2010, published 2012).
